This passage reports ATP extraction efficiency results from patent publication US20050042661A1, “Use of novel compounds to release nucleotides from living cells” (priority 2003, published 2005).

For experiment [1], the system named is whole blood diluted with physiological saline 200 times. Briefly: Extraction efficiency test of ATP, whole blood. The format is cell-based. Particulars: Whole blood diluted 200 times. Here is the method: (§1) The extraction efficiency of the release reagent based on a quaternary ethoxylated amine and an ethoxylated amine mixture was also tested against the boiling tris-EDTA buffer and the perchloric acid extraction methods. The samples consisted of whole blood diluted with physiological saline 200 times, a suspension of E. coli bacteria in concentration of one million cells per milliliter, and a suspension of green algae, Chlorella sp. […]
(§2) Measurement of ATP by bioluminescence: 100 microliter aliquots of extracted sample solution were pipetted into transparent glass cuvettes and these were placed into the light-tight reaction chamber of a photon counter. […] The light emission was integrated for 10 seconds and the results read on the digital display as relative light units. The relative light units were converted to ATP by internal standardization whereby a known quantity of ATP standard was added into an aliquot of the extracted sample and measured as above. […] By subtracting the reading of the sample from that of the sample+added ATP standard a conversion factor for relative light units to ATP was calculated.

The next experiment relates to E. coli bacteria. Briefly: Extraction efficiency test of ATP, E. coli suspension. The format is cell-based. The conditions noted are these: one million cells per milliliter. Here is the method:
as §1, §2

Turning to `[O-][Cl+3]([O-])([O-])O` [Perchloric acid method, perchloric acid], the ATP extraction efficiency in experiment [1] was 7%; in the experiment on E. coli bacteria, 3%.
